Values of other authors, collected in patent US20200325234A1, “IMMUNE-BASED TREATMENT OF KRAS-VARIANT CANCER PATIENTS” (MIRA DX, INC., priority 2016, published 2020).
Where two headings read alike, the source gives them in different places.

Test system: KRAS-variant patients
[1] = KRAS-variant patients with non-small cell lung cancer (NSCLC)

SMILES: N.N.[Cl][Pt][Cl] [cisplatin]
- response to therapy (KRAS-variant patients with ovarian or head and neck cancer): resistance

SMILES: CNC(=O)c1cc(Oc2ccc(NC(=O)Nc3ccc(Cl)c(C(F)(F)F)c3)cc2)ccn1 [sorafenib]
- response to therapy [1]: sensitivity

SMILES: C#Cc1cccc(Nc2ncnc3cc(OCCOC)c(OCCOC)cc23)c1 [erlotonib]
- response to therapy [1]: resistance
